According to patent US20160339026A1, “TOPICAL COMPOSITIONS COMPRISING MODULATORS OF TRPM8” (Senomyx, Inc., priority 2015, published 2016):
pEC50: −log10 of the molar value. Where two headings read alike, the source gives them in different places.

Assays:
hTRPM8 [1] = target: T1, hTRPM8 (Homo sapiens, UniProt Q7Z2W7); details: Table 1.8; according to WO2011/061330 A2 E Table C 3-14; cited from earlier work
T1 construct: expressed in transfected cells

[2] = Sensory study of topically applied Compound 101; assay type: in vivo, human
Method: The response of subjects to topically applied Compound 101 was assessed. Subjects were exposed to a solid formulation of Compound 101 in small quantities. […] In another assessment, subjects were exposed to a dilute airborne microparticulate Compound 101.

hTRPM8 [3] = target: T1, hTRPM8; assay: Cell line stably expressing hTRPM8, agonist assay, compounds of Formula (I); assay type: cell-based; details: Table 1.7
Description: A mammalian cell line derivative which stably expresses hTRPM8 was used in biological assays in association with testing the present compounds with cool-tasting or -feeling properties (Servant et al. US 2007/0259354 A1 and references cited therein). […] The present compounds have shown strong activity as agonists of hTRPM8. Assay results for compounds are illustrated in Table 1.1 below. Specifically, the Examples listed in Table 1.1, i.e., Compounds A1 to Compounds U10 are the specific compounds above that fall within Formula (I).

T1 sequence (Q7Z2W7 whole entry): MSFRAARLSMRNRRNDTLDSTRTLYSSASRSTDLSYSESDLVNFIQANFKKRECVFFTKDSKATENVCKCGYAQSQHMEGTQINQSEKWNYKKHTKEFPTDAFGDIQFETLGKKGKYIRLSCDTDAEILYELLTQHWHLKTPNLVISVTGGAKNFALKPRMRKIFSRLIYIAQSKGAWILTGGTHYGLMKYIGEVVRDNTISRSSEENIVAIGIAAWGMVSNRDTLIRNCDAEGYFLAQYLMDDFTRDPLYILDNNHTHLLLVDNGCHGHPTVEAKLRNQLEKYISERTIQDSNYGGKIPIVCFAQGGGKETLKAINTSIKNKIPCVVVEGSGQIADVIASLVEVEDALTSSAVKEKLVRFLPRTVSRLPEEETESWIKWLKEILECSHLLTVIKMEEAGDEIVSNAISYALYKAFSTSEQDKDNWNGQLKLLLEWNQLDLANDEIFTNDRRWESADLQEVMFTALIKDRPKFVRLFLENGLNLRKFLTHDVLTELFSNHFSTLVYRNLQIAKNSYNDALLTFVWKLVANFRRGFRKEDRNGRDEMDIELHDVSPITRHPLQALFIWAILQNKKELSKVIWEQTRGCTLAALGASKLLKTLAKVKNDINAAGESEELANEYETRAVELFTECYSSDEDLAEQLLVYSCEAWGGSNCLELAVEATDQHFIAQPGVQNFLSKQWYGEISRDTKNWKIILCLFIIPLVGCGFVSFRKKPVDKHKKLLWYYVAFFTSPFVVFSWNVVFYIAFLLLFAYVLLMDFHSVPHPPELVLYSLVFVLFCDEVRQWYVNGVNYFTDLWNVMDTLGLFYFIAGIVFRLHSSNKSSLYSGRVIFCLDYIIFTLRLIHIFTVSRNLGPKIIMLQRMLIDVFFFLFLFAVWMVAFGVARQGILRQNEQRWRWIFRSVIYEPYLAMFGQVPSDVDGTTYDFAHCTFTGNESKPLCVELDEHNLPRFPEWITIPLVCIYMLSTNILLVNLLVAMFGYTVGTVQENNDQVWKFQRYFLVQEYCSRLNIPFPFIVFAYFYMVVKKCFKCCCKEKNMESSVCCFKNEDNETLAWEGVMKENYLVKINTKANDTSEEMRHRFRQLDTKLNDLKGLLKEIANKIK

| Structure (SMILES) | pEC50 (hTRPM8 [3]) | EC50 Ratio (WS-3) (hTRPM8 [3]) | further results |
| --- | --- | --- | --- |
| CCN(Cc1ccccc1)C(=O)C=Cc1ccc2c(c1)OCO2 | – | – | pEC50 (hTRPM8 [1]): 5.82 |
| Cc1ccc(OCC(=O)N(Cc2cccs2)c2ccn[nH]2)cc1 [Compound 101] | – | – | Sensation reported by subjects ([2]; exposure to a solid formulation in small quantities): all subjects reported a “tingling” and “cooling” sensation; Sensation reported by subjects ([2]; exposure to dilute airborne microparticulate compound): exhibited a “cooling smell” and induced “tingling sensation” on the skin |
| O=C(COc1ccc(Br)cc1)N(Cc1ccccc1)c1ccccn1 [drawing 56 R=4-Br R1=2-Pyridyl Ar=Phenyl] | 4.81 | 0.2 | – |
| Cc1ccc(OCC(=O)N(Cc2ccccc2)c2ccccn2)cc1 [drawing 56 R=4-Me R1=2-Pyridyl Ar=Phenyl] | 5.33 | 0.6 | – |
| CCN(Cc1ccccc1)C(=O)COc1ccc(C)cc1 [drawing 56 R=4-Me R1=Ethyl Ar=Phenyl] | 6.11 | 4.2 | – |
| Cc1ccc(OCC(=O)N(C)Cc2ccccc2)cc1 [drawing 56 R=4-Me R1=Methyl Ar=Phenyl] | < 4.00 | – | – |
| CCN(Cc1ccccc1)C(=O)COc1ccccc1 [drawing 56 R=H R1=Ethyl Ar=Phenyl] | 5.04 | 0.5 | – |
